Experimental data from patent US8609700B2, “Pyridine compounds for controlling invertebrate pests I” (BASF SE, priority 2010, dated 2013).

Assays:
Assay type in all cases: in vivo
[1] = tested on: Silverleaf Whitefly (Bemisia argentifolii, Adult); assay: Silverleaf whitefly, cotton plants sprayed; conditions: 300 ppm, 3 days after treatment
Method: II.8 Silverleaf Whitefly (Bemisia argentifolii, Adult)
(§1) The active compounds were formulated in cyclohexanone as a 10,0000 ppm solution supplied in 1.3 ml ABgene® tubes. These tubes were inserted into an automated electrostatic sprayer equipped with an atomizing nozzle and they served as stock solutions for which lower dilutions were made in 50% acetone:50% water (vol/vol). A nonionic surfactant (Kinetic®) was included in the solution at a volume of 0.01% (vol/vol).
Cotton plants at the cotyledon stage (one plant per pot) were sprayed by an automated electrostatic plant sprayer equipped with an atomizing spray nozzle. The plants were dried in the sprayer fume hood and then removed from the sprayer. Each pot was placed into a plastic cup and 10 to 12 whitefly adults (approximately 3-5 days old) were introduced. The insects were collected using an aspirator and 0.6 cm, nontoxic Tygon® tubing (R-3603) connected to a barrier pipette tip. The tip, containing the collected insects, was then gently inserted into the soil containing the treated plant, allowing insects to crawl out of the tip to reach the foliage for feeding. Cups were covered with a reusable screened lid (150-micron mesh polyester screen PeCap from Tetko, Inc.). […] Mortality was assessed 3 days after treatment, compared to untreated control plants.

[2] = tested on: Brown Planthopper (Nilaparvata lugens); assay: Brown planthopper, rice seedlings sprayed; conditions: 500 ppm, after 72 hours
Method: II.7 Activity Against Brown Planthopper (Nilaparvata lugens)
The active compounds were formulated as a 50:50 (vol/vol) acetone:water solution. Surfactant (Alkamuls EL 620) was added at the rate of 0.1% (vol/vol).
Rice seedlings were cleaned and washed 24 h before spraying. Potted rice seedlings were sprayed with 5 ml test solution, air dried, placed in cages and inoculated with 10 adults. Treated rice plants were kept at 28-29° C. and relative humidity of 50-60%. Percent mortality was recorded after 72 hours.

[3] = tested on: Cotton Aphid (Aphis gossypii, Mixed Life Stages); assay: Cotton aphid, method b) (electrostatic sprayer); conditions: 300 ppm; infested cotton plants sprayed; after 5 days
Method: II.1 Cotton Aphid (Aphis gossypii, Mixed Life Stages)
as §1, with “sur25 factant” for “surfactant”
Cotton plants at the cotyledon stage were infested with aphids prior to treatment by placing a heavily infested leaf from the main aphid colony on top of each cotyledon. Aphids were allowed to transfer overnight to accomplish an infestation of 80-100 aphids per plant and the host leaf was removed. The infested plants were then sprayed by an automated electrostatic plant sprayer equipped with an atomizing spray nozzle. The plants were dried in the sprayer fume hood, removed from the sprayer, and then maintained in a growth room under fluorescent lighting in a 24-hr photoperiod at 25° C. and 20-40% relative humidity. Aphid mortality on the treated plants, relative to mortality on untreated control plants, was determined after 5 days.

[4] = tested on: Boll Weevil (Anthonomus grandis); assay: Boll weevil, insect diet in 24-well-microtiter plates; conditions: 120 h, test solution 2500 mg/L, sprayed onto insect diet, 5 days, read-out: mortality (egg and larval)
Method: II.5 Boll Weevil (Anthonomus grandis)
The compounds were formulated in 75:25 (vol/vol) water:DMSO.
For evaluating control of boll weevil (Anthonomus grandis) the test unit consisted of 24-well-microtiter plates containing an insect diet and 20-30 A. grandis eggs. Different concentrations of formulated compounds were sprayed onto the insect diet at 20 μl, using a custom built micro atomizer, at two replications. After application, the microtiter plates were incubated at 23±1° C. and 50±5% relative humidity for 5 days. Egg and larval mortality was then visually assessed.

Compound: O=C(Nc1cccnc1)c1sccc1C(F)(F)F [Compound 7]
- mortality in comparison with untreated controls [1]: at least 75%

Compound: CN(C(=O)c1cccn1C)c1cccnc1 [Compound 14]
- mortality in comparison with untreated controls [2]: at least 50%

Compound: O=C(Nc1cccnc1)c1cscc1C(F)(F)F [Compound 26]
- mortality in comparison with untreated controls [3]: at least 75%

Compound: CN(C(=O)c1cc(Cl)sc1Cl)c1cccnc1 [Compound 28, 2,5-Dichloro-thiophene-3-carboxylic acid methyl-pyridin-3-yl-amide]
- mortality at 2500 µg/mL [4]: ≥ 50%
